Assays:
Assay in all cases: Post-emergence test, weed control effect
Format in all cases: in vivo
Settings in all cases: after 3 weeks
Amaranthus retroflexus = system: Amaranthus retroflexus
From the text: (§1) The activity level standard of harmful plant destruction (i.e. growth inhibition rate) is as follows: • Level 10: completely dead; • Level 9: above 90% growth inhibition rate; • Level 8: above 80% growth inhibition rate; • Level 7: above 70% growth inhibition rate; • Level 6: above 60% growth inhibition rate; • Level 5: above 50% growth inhibition rate; • Level 4: above 40% growth inhibition rate; • Level 3: above 30% growth inhibition rate; • Level 2: above 20% growth inhibition rate; • Level 1: below 20% growth inhibition rate; • Level 0: no effect.
(§2) The above described growth inhibition rates are fresh weight inhibition rates.
(§3) Experiment of post-emergence test: monocotyledonous and dicotyledonous weed seeds as well as main crop seeds (i.e., wheat, corn, rice, soybean, cotton, oilseed rape, millet and sorghum) were put into a plastic pot loaded with soil, then covered with 0.5-2 cm of soil, and the seeds were allowed to grow in good greenhouse environment. The test plants were treated at 2-3 leaf stage 2-3 weeks after sowing. The test compounds of the invention were dissolved in acetone respectively, then added with Tween-80 and diluted by a certain amount of water to give solutions with certain concentrations, and added with 80% vegetable oil methyl ester synergist at 1500 g/ha. The solution was sprayed to the plants with a sprayer. The plants were cultured for 3 weeks in the greenhouse.

Chenopodiaceae = system: Chenopodiaceae
From the text: as §1, §2, §3

Rorippa indica = system: Rorippa indica
From the text: as §1, §2, §3

Veronica polita = system: Veronica polita
From the text: as §1, §2, §3

Oc1cc(C(F)(F)F)nnc1C1C=C2C=CC=CC2N1 (stereo not drawn) [Compound 877]
10: weed control effect (activity level), Amaranthus retroflexus (Amaranthus retroflexus; Dose 3000 g/ha) | weed control effect (activity level), Chenopodiaceae (Chenopodiaceae; Dose 3000 g/ha) | weed control effect (activity level), Rorippa indica (Rorippa indica; Dose 3000 g/ha) | weed control effect (activity level), Veronica polita (Veronica polita; Dose 3000 g/ha)

Cc1ccc(S(=O)(=O)Oc2cc(C(F)(F)F)nnc2-c2ccnc(F)c2)cc1 [Compound 1-126]
10: weed control effect, Amaranthus retroflexus (activity level) (Amaranthus retroflexus; Dose 3000 g/ha) | weed control effect, Chenopodiaceae (activity level) (Chenopodiaceae; Dose 3000 g/ha) | weed control effect, Rorippa indica (activity level) (Rorippa indica; Dose 3000 g/ha) | weed control effect, Veronica polita (activity level) (Veronica polita; Dose 3000 g/ha)

Oc1cc(C(F)(F)F)nnc1-c1cc(Cl)nc(Cl)c1 [Compound 218]
10: weed control effect (activity level), Amaranthus retroflexus (Amaranthus retroflexus; dose 2000 g/ha) | weed control effect (activity level), Chenopodiaceae (Chenopodiaceae; dose 2000 g/ha) | weed control effect (activity level), Rorippa indica (Rorippa indica; dose 2000 g/ha) | weed control effect (activity level), Veronica polita (Veronica polita; dose 2000 g/ha)

Oc1cc(C(F)(F)F)nnc1-c1cncc(I)c1 [Compound 971]
10: weed control effect (activity level), Amaranthus retroflexus (Amaranthus retroflexus; Dose 3000 g/ha) | weed control effect (activity level), Chenopodiaceae (Chenopodiaceae; Dose 3000 g/ha) | weed control effect (activity level), Rorippa indica (Rorippa indica; Dose 3000 g/ha) | weed control effect (activity level), Veronica polita (Veronica polita; Dose 3000 g/ha)

Oc1cc(C(F)(F)F)nnc1-c1ccc(F)cc1F [Compound 732]
10: weed control effect (activity level), Amaranthus retroflexus (Amaranthus retroflexus; dose 1000 g/ha) | weed control effect (activity level), Chenopodiaceae (Chenopodiaceae; dose 1000 g/ha) | weed control effect (activity level), Rorippa indica (Rorippa indica; dose 1000 g/ha) | weed control effect (activity level), Veronica polita (Veronica polita; dose 1000 g/ha)

O=C(/C=C/c1ccc(Cl)cc1)Oc1cc(C(F)(F)F)nnc1-c1ccc(F)cc1 [Compound 1-97]
10: weed control effect, Amaranthus retroflexus (activity level) (Amaranthus retroflexus; Dose 3000 g/ha) | weed control effect, Chenopodiaceae (activity level) (Chenopodiaceae; Dose 3000 g/ha) | weed control effect, Rorippa indica (activity level) (Rorippa indica; Dose 3000 g/ha) | weed control effect, Veronica polita (activity level) (Veronica polita; Dose 3000 g/ha)

Oc1cc(C(F)(F)F)nnc1-c1cncc(Br)c1 [Compound 967]
10: weed control effect (activity level), Amaranthus retroflexus (Amaranthus retroflexus; Dose 3000 g/ha) | weed control effect (activity level), Chenopodiaceae (Chenopodiaceae; Dose 3000 g/ha) | weed control effect (activity level), Rorippa indica (Rorippa indica; Dose 3000 g/ha) | weed control effect (activity level), Veronica polita (Veronica polita; Dose 3000 g/ha)

CC(C)(C)C(=O)Oc1cc(C(F)(F)F)nnc1-c1ccc(C(F)(F)F)nc1 [Compound 1-9]
10: weed control effect, Amaranthus retroflexus (activity level) (Amaranthus retroflexus; Dose 3000 g/ha) | weed control effect, Chenopodiaceae (activity level) (Chenopodiaceae; Dose 3000 g/ha) | weed control effect, Rorippa indica (activity level) (Rorippa indica; Dose 3000 g/ha) | weed control effect, Veronica polita (activity level) (Veronica polita; Dose 3000 g/ha)

O=Cc1ccc(-c2nnc(C(F)(F)F)cc2O)c(F)c1 [Compound 64]
10: weed control effect (activity level), Amaranthus retroflexus (Amaranthus retroflexus; dose 1000 g/ha) | weed control effect (activity level), Chenopodiaceae (Chenopodiaceae; dose 1000 g/ha) | weed control effect (activity level), Rorippa indica (Rorippa indica; dose 1000 g/ha) | weed control effect (activity level), Veronica polita (Veronica polita; dose 1000 g/ha)

Oc1cc(C(F)(F)F)nnc1-c1c(Cl)ccnc1F [Compound 999]
10: weed control effect (activity level), Amaranthus retroflexus (Amaranthus retroflexus; Dose 3000 g/ha) | weed control effect (activity level), Chenopodiaceae (Chenopodiaceae; Dose 3000 g/ha) | weed control effect (activity level), Rorippa indica (Rorippa indica; Dose 3000 g/ha) | weed control effect (activity level), Veronica polita (Veronica polita; Dose 3000 g/ha)

COP(=O)(OC)Oc1cc(C(F)(F)F)nnc1-c1ccc(F)c(Cl)c1 [Compound 1-167]
10: weed control effect, Amaranthus retroflexus (activity level) (Amaranthus retroflexus; Dose 3000 g/ha) | weed control effect, Chenopodiaceae (activity level) (Chenopodiaceae; Dose 3000 g/ha) | weed control effect, Rorippa indica (activity level) (Rorippa indica; Dose 3000 g/ha) | weed control effect, Veronica polita (activity level) (Veronica polita; Dose 3000 g/ha)

Oc1cc(C(F)(F)F)nnc1-c1ccc(C(F)(F)F)nc1 [Compound 762]
10: weed control effect (activity level), Amaranthus retroflexus (Amaranthus retroflexus; Dose 3000 g/ha) | weed control effect (activity level), Chenopodiaceae (Chenopodiaceae; Dose 3000 g/ha) | weed control effect (activity level), Rorippa indica (Rorippa indica; Dose 3000 g/ha) | weed control effect (activity level), Veronica polita (Veronica polita; Dose 3000 g/ha)

Oc1cc(C(F)(F)F)nnc1-c1ccc(Cl)nc1Cl [Compound 991]
10: weed control effect (activity level), Amaranthus retroflexus (Amaranthus retroflexus; Dose 3000 g/ha) | weed control effect (activity level), Chenopodiaceae (Chenopodiaceae; Dose 3000 g/ha) | weed control effect (activity level), Rorippa indica (Rorippa indica; Dose 3000 g/ha) | weed control effect (activity level), Veronica polita (Veronica polita; Dose 3000 g/ha)

COc1c(C)ccc(F)c1-c1nnc(C(F)(F)F)cc1O [Compound 62]
10: weed control effect (activity level), Amaranthus retroflexus (Amaranthus retroflexus; dose 1000 g/ha) | weed control effect (activity level), Chenopodiaceae (Chenopodiaceae; dose 1000 g/ha) | weed control effect (activity level), Rorippa indica (Rorippa indica; dose 1000 g/ha) | weed control effect (activity level), Veronica polita (Veronica polita; dose 1000 g/ha)

O=C(Oc1cc(C(F)(F)F)nnc1-c1ccc(F)c(F)c1)N1CCOCC1 [Compound 1-66]
10: weed control effect, Amaranthus retroflexus (activity level) (Amaranthus retroflexus; Dose 3000 g/ha) | weed control effect, Chenopodiaceae (activity level) (Chenopodiaceae; Dose 3000 g/ha) | weed control effect, Rorippa indica (activity level) (Rorippa indica; Dose 3000 g/ha) | weed control effect, Veronica polita (activity level) (Veronica polita; Dose 3000 g/ha)

Cc1ccncc1-c1nnc(C(F)(F)F)cc1O [Compound 975]
10: weed control effect (activity level), Amaranthus retroflexus (Amaranthus retroflexus; Dose 3000 g/ha) | weed control effect (activity level), Chenopodiaceae (Chenopodiaceae; Dose 3000 g/ha) | weed control effect (activity level), Rorippa indica (Rorippa indica; Dose 3000 g/ha) | weed control effect (activity level), Veronica polita (Veronica polita; Dose 3000 g/ha)

COC(=O)/C=C/c1nnc(C(F)(F)F)cc1O [Compound 1522]
10: weed control effect (activity level), Amaranthus retroflexus (Amaranthus retroflexus; Dose 3000 g/ha) | weed control effect (activity level), Chenopodiaceae (Chenopodiaceae; Dose 3000 g/ha)

Source: patent US12568972B2, “Pyridazinol compounds and derivatives, preparation methods, herbicidal compositions and applications thereof” (Qingdao Kingagroot Chemical Compound Co., Ltd., priority 2018, dated 2026)
